Results reported in the kinase profiling compilation of Christmann-Franck et al. (2016).

Legend:
Test in all cases: KINOMEscan competition binding
Settings in all cases: compound 10.0 µM
ADCK3 (human) = ADCK3 (human) (UniProt Q8NI60)
AXL (human) = AXL (human) (UniProt P30530)
BMPR1A (human) = BMPR1A (human) (UniProt P36894)
BMPR1B (human) = BMPR1B (human) (UniProt O00238)
BRSK2 (human) = BRSK2 (human) (UniProt Q8IWQ3)
CDC2L2 (human) = CDC2L2 (human) (UniProt Q9UQ88)
CDK13 (human) = CDK13 (human) (UniProt Q14004)
CDK4 CCND3 (human) = CDK4 CCND3 (human) (UniProt P11802+P30281)
CIT (human) = CIT (human) (UniProt O14578)
CLK1 (human) = CLK1 (human) (UniProt P49759)
CPK1 (P.falciparum) = system: CPK1 (P.falciparum)
DAPK3 (human) = DAPK3 (human) (UniProt O43293)
EPHA3 (human) = EPHA3 (human) (UniProt P29320)
EPHA7 (human) = EPHA7 (human) (UniProt Q15375)
FGFR4 (human) = FGFR4 (human) (UniProt P22455)
FLT4 (human) = FLT4 (human) (UniProt P35916)
HIPK1 (human) = HIPK1 (human) (UniProt Q86Z02)
KDR (human) = KDR (human) (UniProt P35968)
MAP2K5 (human) = MAP2K5 (human) (UniProt Q13163)
MAP3K10 (human) = MAP3K10 (human) (UniProt Q02779)
MAP3K5 (human) = MAP3K5 (human) (UniProt Q99683)
MAP4K5 (human) = MAP4K5 (human) (UniProt Q9Y4K4)
MAPK12 (human) = MAPK12 (human) (UniProt P53778)
MAPK4 (human) = MAPK4 (human) (UniProt P31152)
MAPK7 (human) = MAPK7 (human) (UniProt Q13164)
MYLK3 (human) = MYLK3 (human) (UniProt Q32MK0)
PAK1 (human) = PAK1 (human) (UniProt Q13153)
PHKG2 (human) = PHKG2 (human) (UniProt P15735)
PIK3CA (human) = PIK3CA (human) (UniProt P42336)
PIK3CG (human) = PIK3CG (human) (UniProt P48736)
PLK1 (human) = PLK1 (human) (UniProt P53350)
PLK2 (human) = PLK2 (human) (UniProt Q9NYY3)
PRKAA1 (human) = PRKAA1 (human) (UniProt Q13131)
PRKAA2 (human) = PRKAA2 (human) (UniProt P54646)
PTK6 (human) = PTK6 (human) (UniProt Q13882)
RET (human) = RET (human) (UniProt P07949)
STK11 (human) = STK11 (human) (UniProt Q15831)
TEC (human) = TEC (human) (UniProt P42680)
TIE1 (human) = TIE1 (human) (UniProt P35590)
TNIK (human) = TNIK (human) (UniProt Q9UKE5)
ZAP70 (human) = ZAP70 (human) (UniProt P43403)
ZAP70 (human), sequence (P43403 whole entry, looked up): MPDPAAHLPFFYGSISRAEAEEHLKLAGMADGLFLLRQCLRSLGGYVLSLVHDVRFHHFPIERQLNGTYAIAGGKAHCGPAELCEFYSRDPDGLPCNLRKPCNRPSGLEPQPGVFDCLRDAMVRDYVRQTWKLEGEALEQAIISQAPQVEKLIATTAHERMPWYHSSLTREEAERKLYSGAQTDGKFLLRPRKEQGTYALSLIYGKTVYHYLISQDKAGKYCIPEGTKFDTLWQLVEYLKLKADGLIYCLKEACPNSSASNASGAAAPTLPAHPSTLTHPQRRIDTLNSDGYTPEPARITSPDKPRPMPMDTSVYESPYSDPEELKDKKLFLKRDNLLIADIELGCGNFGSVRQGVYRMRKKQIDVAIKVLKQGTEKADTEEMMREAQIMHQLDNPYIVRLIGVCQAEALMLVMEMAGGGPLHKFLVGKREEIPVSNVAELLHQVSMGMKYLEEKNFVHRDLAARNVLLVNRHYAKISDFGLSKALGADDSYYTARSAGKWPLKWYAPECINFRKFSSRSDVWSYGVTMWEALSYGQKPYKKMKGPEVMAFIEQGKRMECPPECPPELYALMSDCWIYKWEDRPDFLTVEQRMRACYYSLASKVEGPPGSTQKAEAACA

TIE1 (human), sequence (P35590 whole entry, looked up): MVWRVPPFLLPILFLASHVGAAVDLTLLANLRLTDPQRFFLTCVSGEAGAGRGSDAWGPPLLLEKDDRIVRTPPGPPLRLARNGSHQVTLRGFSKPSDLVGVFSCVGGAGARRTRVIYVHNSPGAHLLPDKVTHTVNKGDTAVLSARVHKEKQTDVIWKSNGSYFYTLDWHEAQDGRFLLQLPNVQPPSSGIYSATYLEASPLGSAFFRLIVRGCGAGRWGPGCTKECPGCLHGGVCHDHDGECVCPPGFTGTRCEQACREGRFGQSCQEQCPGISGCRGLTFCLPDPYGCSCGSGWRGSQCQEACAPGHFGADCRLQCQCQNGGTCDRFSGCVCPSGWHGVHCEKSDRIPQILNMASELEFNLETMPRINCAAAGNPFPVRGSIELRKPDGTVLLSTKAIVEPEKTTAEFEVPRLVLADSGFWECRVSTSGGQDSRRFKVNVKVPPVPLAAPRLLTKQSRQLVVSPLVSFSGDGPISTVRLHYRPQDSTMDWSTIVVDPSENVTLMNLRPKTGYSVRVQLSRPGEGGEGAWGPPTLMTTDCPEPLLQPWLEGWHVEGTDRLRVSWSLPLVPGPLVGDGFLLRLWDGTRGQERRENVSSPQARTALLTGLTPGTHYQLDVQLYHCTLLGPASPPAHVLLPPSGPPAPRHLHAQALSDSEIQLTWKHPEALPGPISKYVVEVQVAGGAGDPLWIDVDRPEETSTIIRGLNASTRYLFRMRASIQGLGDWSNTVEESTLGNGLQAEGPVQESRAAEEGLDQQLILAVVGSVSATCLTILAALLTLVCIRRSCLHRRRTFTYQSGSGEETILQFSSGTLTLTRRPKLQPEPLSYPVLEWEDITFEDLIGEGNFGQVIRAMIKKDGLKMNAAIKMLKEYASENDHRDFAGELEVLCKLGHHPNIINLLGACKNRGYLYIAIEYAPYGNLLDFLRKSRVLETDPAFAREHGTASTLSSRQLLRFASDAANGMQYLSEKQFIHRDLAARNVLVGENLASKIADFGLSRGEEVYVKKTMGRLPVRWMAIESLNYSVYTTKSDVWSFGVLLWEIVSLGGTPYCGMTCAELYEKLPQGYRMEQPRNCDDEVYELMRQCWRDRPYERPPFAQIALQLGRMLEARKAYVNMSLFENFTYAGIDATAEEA
CDK13 (human), sequence (Q14004 whole entry, looked up): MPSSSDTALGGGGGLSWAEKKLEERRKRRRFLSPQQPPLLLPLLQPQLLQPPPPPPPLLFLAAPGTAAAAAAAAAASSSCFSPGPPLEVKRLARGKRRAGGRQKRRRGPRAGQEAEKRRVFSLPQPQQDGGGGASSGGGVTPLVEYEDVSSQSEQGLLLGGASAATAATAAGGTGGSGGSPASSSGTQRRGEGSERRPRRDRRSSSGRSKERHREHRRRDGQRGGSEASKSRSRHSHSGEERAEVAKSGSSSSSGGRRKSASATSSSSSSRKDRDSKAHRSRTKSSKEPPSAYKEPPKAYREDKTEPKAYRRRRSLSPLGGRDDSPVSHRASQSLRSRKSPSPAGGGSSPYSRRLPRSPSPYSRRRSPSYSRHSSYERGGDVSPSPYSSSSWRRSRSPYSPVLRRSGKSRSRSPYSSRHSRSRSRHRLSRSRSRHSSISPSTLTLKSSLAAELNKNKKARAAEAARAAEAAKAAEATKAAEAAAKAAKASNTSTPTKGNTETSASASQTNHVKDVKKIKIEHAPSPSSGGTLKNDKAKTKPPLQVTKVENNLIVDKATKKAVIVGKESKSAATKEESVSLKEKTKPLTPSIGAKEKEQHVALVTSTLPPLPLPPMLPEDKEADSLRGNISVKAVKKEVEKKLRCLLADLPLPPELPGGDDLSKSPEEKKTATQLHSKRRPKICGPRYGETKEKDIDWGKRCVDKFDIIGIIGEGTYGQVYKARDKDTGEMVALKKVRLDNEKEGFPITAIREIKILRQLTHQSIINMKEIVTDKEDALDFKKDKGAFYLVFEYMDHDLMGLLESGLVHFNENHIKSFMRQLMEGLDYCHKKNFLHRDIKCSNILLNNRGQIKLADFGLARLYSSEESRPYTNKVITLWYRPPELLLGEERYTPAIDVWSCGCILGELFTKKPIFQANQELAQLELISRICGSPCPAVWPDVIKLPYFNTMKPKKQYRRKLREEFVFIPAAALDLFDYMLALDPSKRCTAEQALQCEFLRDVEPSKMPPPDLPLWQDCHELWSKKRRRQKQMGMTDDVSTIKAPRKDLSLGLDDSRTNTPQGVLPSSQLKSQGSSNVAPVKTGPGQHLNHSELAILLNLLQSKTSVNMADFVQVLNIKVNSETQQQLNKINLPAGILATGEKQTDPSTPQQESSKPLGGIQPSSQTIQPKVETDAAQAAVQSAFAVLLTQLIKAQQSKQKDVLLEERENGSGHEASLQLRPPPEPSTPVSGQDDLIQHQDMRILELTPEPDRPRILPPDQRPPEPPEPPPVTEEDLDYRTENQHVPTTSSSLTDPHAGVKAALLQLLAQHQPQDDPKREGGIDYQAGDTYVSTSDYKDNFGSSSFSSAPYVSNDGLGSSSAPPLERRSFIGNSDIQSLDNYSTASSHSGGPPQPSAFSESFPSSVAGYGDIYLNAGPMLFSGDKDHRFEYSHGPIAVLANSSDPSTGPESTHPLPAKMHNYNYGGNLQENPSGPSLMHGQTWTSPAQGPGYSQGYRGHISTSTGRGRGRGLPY
FLT4 (human), sequence (P35916 whole entry, looked up): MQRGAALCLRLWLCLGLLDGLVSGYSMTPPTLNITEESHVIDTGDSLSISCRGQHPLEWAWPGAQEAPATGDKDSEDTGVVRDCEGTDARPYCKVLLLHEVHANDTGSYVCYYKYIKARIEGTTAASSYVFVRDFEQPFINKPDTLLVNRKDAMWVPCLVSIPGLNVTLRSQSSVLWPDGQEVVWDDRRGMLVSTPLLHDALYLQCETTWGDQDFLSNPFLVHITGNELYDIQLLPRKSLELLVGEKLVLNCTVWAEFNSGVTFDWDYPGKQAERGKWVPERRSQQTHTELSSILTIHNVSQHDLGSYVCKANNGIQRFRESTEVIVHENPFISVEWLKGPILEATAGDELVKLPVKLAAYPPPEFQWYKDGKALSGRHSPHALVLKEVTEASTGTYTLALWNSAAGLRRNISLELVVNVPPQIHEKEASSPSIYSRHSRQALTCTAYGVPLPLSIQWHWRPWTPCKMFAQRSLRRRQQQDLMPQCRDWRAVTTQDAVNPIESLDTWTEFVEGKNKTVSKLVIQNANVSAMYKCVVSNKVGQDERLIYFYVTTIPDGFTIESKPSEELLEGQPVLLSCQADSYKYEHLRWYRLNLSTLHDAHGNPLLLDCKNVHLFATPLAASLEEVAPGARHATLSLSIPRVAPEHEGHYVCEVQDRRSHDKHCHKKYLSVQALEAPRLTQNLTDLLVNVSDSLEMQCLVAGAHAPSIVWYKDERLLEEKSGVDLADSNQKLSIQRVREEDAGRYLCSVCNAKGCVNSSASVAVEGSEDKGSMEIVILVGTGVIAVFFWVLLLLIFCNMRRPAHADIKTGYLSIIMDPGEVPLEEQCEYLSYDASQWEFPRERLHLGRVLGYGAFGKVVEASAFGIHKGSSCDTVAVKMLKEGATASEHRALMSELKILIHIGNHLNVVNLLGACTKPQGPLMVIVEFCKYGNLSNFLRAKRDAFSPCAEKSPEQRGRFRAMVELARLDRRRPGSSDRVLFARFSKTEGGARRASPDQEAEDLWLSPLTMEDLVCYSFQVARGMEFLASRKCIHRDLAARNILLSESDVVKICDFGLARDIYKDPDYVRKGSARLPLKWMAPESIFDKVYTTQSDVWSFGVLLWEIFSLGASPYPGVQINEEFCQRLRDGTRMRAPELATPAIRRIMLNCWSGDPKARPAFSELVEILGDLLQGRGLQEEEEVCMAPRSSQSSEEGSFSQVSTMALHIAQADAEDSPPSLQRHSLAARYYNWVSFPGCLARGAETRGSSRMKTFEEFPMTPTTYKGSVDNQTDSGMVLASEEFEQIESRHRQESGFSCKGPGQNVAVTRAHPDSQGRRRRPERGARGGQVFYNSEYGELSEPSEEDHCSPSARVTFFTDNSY
STK11 (human), sequence (Q15831 whole entry, looked up): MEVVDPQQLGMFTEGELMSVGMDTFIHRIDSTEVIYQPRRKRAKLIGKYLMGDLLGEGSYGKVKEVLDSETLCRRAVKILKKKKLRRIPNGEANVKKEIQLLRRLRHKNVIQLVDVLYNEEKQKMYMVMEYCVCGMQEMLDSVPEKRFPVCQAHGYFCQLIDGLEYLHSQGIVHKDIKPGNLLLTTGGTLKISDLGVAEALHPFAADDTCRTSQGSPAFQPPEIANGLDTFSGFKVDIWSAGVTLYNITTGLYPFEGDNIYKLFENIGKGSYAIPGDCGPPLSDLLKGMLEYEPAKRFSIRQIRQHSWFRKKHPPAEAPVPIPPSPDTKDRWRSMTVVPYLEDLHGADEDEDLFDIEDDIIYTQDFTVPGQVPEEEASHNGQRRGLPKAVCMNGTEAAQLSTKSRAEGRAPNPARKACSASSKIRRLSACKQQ

Compound `O=c1cc(N2CCOCC2)oc2c(-c3cccc4c3sc3ccccc34)cccc12` has a kinase still bound, per cent of control (ADCK3 (human)) of 72%, a kinase still bound, per cent of control (AXL (human)) of 100% and a kinase still bound, per cent of control (BMPR1A (human)) of 94%. It also gave a kinase still bound, per cent of control (BMPR1B (human)) of 35%, a kinase still bound, per cent of control (BRSK2 (human)) of 100% and a kinase still bound, per cent of control (CDC2L2 (human)) of 100%. It also gave a kinase still bound, per cent of control (CDK13 (human)) of 100%, a kinase still bound, per cent of control (CDK4 CCND3 (human)) of 100% and a kinase still bound, per cent of control (CIT (human)) of 85%. For the same compound, the kinase still bound, per cent of control (CLK1 (human)) was 89%, the kinase still bound, per cent of control (CPK1 (P.falciparum)) was 98% and the kinase still bound, per cent of control (DAPK3 (human)) was 92%. It also gave a kinase still bound, per cent of control (EPHA3 (human)) of 91%, a kinase still bound, per cent of control (EPHA7 (human)) of 85% and a kinase still bound, per cent of control (FGFR4 (human)) of 99%. It also gave a kinase still bound, per cent of control (FLT4 (human)) of 92%, a kinase still bound, per cent of control (HIPK1 (human)) of 93% and a kinase still bound, per cent of control (KDR (human)) of 100%. It also gave a kinase still bound, per cent of control (MAP2K5 (human)) of 98%, a kinase still bound, per cent of control (MAP3K10 (human)) of 100% and a kinase still bound, per cent of control (MAP3K5 (human)) of 100%. For the same compound, the kinase still bound, per cent of control (MAP4K5 (human)) was 89%, the kinase still bound, per cent of control (MAPK12 (human)) was 99% and the kinase still bound, per cent of control (MAPK4 (human)) was 100%. It also gave a kinase still bound, per cent of control (MAPK7 (human)) of 100%, a kinase still bound, per cent of control (MYLK3 (human)) of 100% and a kinase still bound, per cent of control (PAK1 (human)) of 71%. For the same compound, the kinase still bound, per cent of control (PHKG2 (human)) was 99%, the kinase still bound, per cent of control (PIK3CA (human)) was 22% and the kinase still bound, per cent of control (PIK3CG (human)) was 1.3%. For the same compound, the kinase still bound, per cent of control (PLK1 (human)) was 94%, the kinase still bound, per cent of control (PLK2 (human)) was 100% and the kinase still bound, per cent of control (PRKAA1 (human)) was 100%. The kinase still bound, per cent of control (PRKAA2 (human)) was 100%, the kinase still bound, per cent of control (PTK6 (human)) was 98% and the kinase still bound, per cent of control (RET (human)) was 100%. The kinase still bound, per cent of control (STK11 (human)) was 75%, the kinase still bound, per cent of control (TEC (human)) was 89% and the kinase still bound, per cent of control (TIE1 (human)) was 100%. It also gave a kinase still bound, per cent of control (TNIK (human)) of 100% and a kinase still bound, per cent of control (ZAP70 (human)) of 100%.
`COc1cc(C(=O)N2CCC(N3CCN(C)CC3)CC2)ccc1Nc1ncc2c(n1)N(C)c1ccccc1C(=O)N2C` gave a kinase still bound, per cent of control (ADCK3 (human)) of 71%, a kinase still bound, per cent of control (AXL (human)) of 100% and a kinase still bound, per cent of control (BMPR1A (human)) of 76%. The kinase still bound, per cent of control (BMPR1B (human)) was 100%, the kinase still bound, per cent of control (BRSK2 (human)) was 64% and the kinase still bound, per cent of control (CDC2L2 (human)) was 82%. It also gave a kinase still bound, per cent of control (CDK13 (human)) of 100%, a kinase still bound, per cent of control (CDK4 CCND3 (human)) of 100% and a kinase still bound, per cent of control (CIT (human)) of 99%. The kinase still bound, per cent of control (CLK1 (human)) was 28%, the kinase still bound, per cent of control (CPK1 (P.falciparum)) was 100% and the kinase still bound, per cent of control (DAPK3 (human)) was 67%. It also gave a kinase still bound, per cent of control (EPHA3 (human)) of 100%, a kinase still bound, per cent of control (EPHA7 (human)) of 97% and a kinase still bound, per cent of control (FGFR4 (human)) of 28%. It also gave a kinase still bound, per cent of control (FLT4 (human)) of 100%, a kinase still bound, per cent of control (HIPK1 (human)) of 100% and a kinase still bound, per cent of control (KDR (human)) of 84%. For the same compound, the kinase still bound, per cent of control (MAP2K5 (human)) was 85%, the kinase still bound, per cent of control (MAP3K10 (human)) was 100% and the kinase still bound, per cent of control (MAP3K5 (human)) was 100%. It also gave a kinase still bound, per cent of control (MAP4K5 (human)) of 100%, a kinase still bound, per cent of control (MAPK12 (human)) of 76% and a kinase still bound, per cent of control (MAPK4 (human)) of 100%. It also gave a kinase still bound, per cent of control (MAPK7 (human)) of 0.05%, a kinase still bound, per cent of control (MYLK3 (human)) of 100% and a kinase still bound, per cent of control (PAK1 (human)) of 95%. It also gave a kinase still bound, per cent of control (PHKG2 (human)) of 33%, a kinase still bound, per cent of control (PIK3CA (human)) of 74% and a kinase still bound, per cent of control (PIK3CG (human)) of 15%. It also gave a kinase still bound, per cent of control (PLK1 (human)) of 0.7%, a kinase still bound, per cent of control (PLK2 (human)) of 100% and a kinase still bound, per cent of control (PRKAA1 (human)) of 51%. It also gave a kinase still bound, per cent of control (PRKAA2 (human)) of 66%, a kinase still bound, per cent of control (PTK6 (human)) of 58% and a kinase still bound, per cent of control (RET (human)) of 100%. It also gave a kinase still bound, per cent of control (STK11 (human)) of 96%, a kinase still bound, per cent of control (TEC (human)) of 100% and a kinase still bound, per cent of control (TIE1 (human)) of 100%. It also gave a kinase still bound, per cent of control (TNIK (human)) of 100% and a kinase still bound, per cent of control (ZAP70 (human)) of 79%.
